Measured values: article PMC6718736, “Validation of in vitro methods for human cytochrome P450 enzyme induction: Outcome of a multi-laboratory study” (Toxicology in Vitro, 2019)
Counter-ions that a name gives are not always drawn. Like-named read-outs stand apart in the source and are kept apart here.

Key:
[1] = Solubility by nephelometry (EURL ECVAM); assay type: physicochemical
Text: In addition to the visual inspection performed by the validation laboratories as described in the SOP, EURL ECVAM introduced nephelometry for systematic solubility determination of the 13 validation set chemicals. Nephelometry uses a laser beam and the principle of Tyndall effect light scatter to detect turbidity due to insolubility. The nephelometer method used formazin as reference item (1, 5, 10 and 20 nephelometric turbidity units (NTU)) to calculate the relative turbidity (RTU) of the validation set of chemicals. To the naked eye, 20 NTU is perceptible, while the nephelometer was sensitive to 5 NTU, with 1 NTU equivalent to background (solvent/medium blank).

CYP2B6 [2] = conditions: cited from earlier work
CYP3A4 [3] = experiment: CYP3A4 enzyme induction assay in cryopreserved primary human hepatocytes (PHH); conditions: for Assigned classification CYP3A4: PHH
CYP2B6 [4] = experiment: CYP2B6 enzyme induction assay in cryopreserved primary human hepatocytes (PHH); assay type: in vitro ADME; conditions: for Assigned classification CYP2B6: PHH;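 on Assigned classification CYP2B6: code 1 means positive inducer and 0 means non-inducer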
CYP1A2 [5] = experiment: CYP1A2 enzyme induction assay in cryopreserved primary human hepatocytes (PHH); assay type: in vitro ADME; conditions: for Prediction in vivo inducer / Induction in vitro: CYP1A2, PHH; for Prediction in vivo inducer: Cmax/F2 >0.5 criterion; for Induction in vitro: positive in one donor in each of the three laboratories; for Assigned classification CYP1A2: PHH;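 on Assigned classification CYP1A2: code 1 means positive inducer and 0 means non-inducer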
CYP = CYP isoforms induced; ref Abadie et al. (2009), Richert et al. (2010), Preissner et al. (2010), Hoffmann et al. (2014); cited from earlier work
CYP3A4 [6] = conditions: cited from earlier work
[7] = cited from earlier work
[8] = Solubility by visual inspection (DMSO stock solution and assay medium); assay type: physicochemical; conditions: assay medium
Protocol: The SOPs relied on visual inspection for solubility observation. […] The absence of precipitation in the medium was checked pre- and post-incubation (24 hours) by centrifugation of the sample and observation of any precipitation (pellet residue).

CYP1A2 [9] = experiment: CYP1A2 enzyme induction assay in cryopreserved HepaRG cells (phenacetin probe, LC/MS); assay type: in vitro ADME, human; conditions: for Assigned classification CYP1A2: HepaRG
CYP3A4 [10] = experiment: CYP3A4 enzyme induction assay in cryopreserved HepaRG cells (midazolam probe, LC/MS); assay type: in vitro ADME, human; conditions: for Assigned classification CYP3A4: HepaRG
CYP1A2 [11] = conditions: CYP1A2, human; ref Table 1; cited from earlier work
CYP2B6 [12] = experiment: CYP2B6 enzyme induction assay in cryopreserved HepaRG cells (bupropion probe, LC/MS); assay type: in vitro ADME, human; conditions: for Prediction in vivo inducer: Cmax/F2 >0.5 criterion; for Assigned classification CYP2B6: HepaRG
[13] = CYP2B6, human in vivo reference classification
[14] = human in vivo, CYP named without remark = induced, ref references in the cell, Washington University database, Hoffmann et al. (2014), Pelkonen et al. (2008), Hukkanen et al. (2012)
[15] = CYP2B6, PHH, Cmax/F2 >0.5 criterion
[16] = human in vivo plasma concentration, normal dose
[17] = human in vivo, normal dose (Table 10)

## O=C1Nc2ccc(Cl)cc2[C@@](C#CC2CC2)(C(F)(F)F)O1 [Efavirenz]
[1]; 40 μg/ml, the two media
  nephelometry finding in assay medium: insoluble suspensions
[1]; ECVAM nephelometry, HepaRG medium, ^2 = solubility limit
  HepaRG medium stability: 20 µg/mL
[1]; ECVAM nephelometry, ^2 = solubility limit
  PHH medium stability: 40^2 μg/mL
[1]; ECVAM nephelometry, ^2 = solubility limit, listed as efavirenz
  PHH medium stability: 40 µg/mL
CYP2B6 [2]; [13]
  Induction in vivo: Yes
CYP2B6 [2]; [14]
  CYP induction in vivo literature reference: CYP2B6: CYP2B6
CYP3A4 [3]; CYP3A4, PHH
  F2: 14.1 µM
  Induction in vitro: Yes
  Prediction in vivo inducer: Yes
CYP3A4 [3]; Lab 1, batch 0 6 A
  Assigned classification CYP3A4: 1
CYP3A4 [3]; Lab 1, batch 4 0 8
  Assigned classification CYP3A4: 1
CYP3A4 [3]; Lab 1, batch 8 0 8
  Assigned classification CYP3A4: 1
CYP3A4 [3]; Lab 2, batch 0 6 A
  Assigned classification CYP3A4: 1
CYP3A4 [3]; Lab 2, batch 4 0 8
  Assigned classification CYP3A4: 1
CYP3A4 [3]; Lab 2, batch 8 0 8
  Assigned classification CYP3A4: 1
CYP3A4 [3]; Lab 3, batch 0 6 A
  Assigned classification CYP3A4: 1
CYP3A4 [3]; Lab 3, batch 4 0 8
  Assigned classification CYP3A4: 1
CYP3A4 [3]; Lab 3, batch 8 0 8
  Assigned classification CYP3A4: 1
CYP2B6 [4]; CYP2B6, PHH
  F2: 4.69 µM
  Induction in vitro: Yes
  Prediction in vivo inducer: Yes
CYP2B6 [4]; [15]
  Prediction in vivo inducer: positive
CYP2B6 [4]; Lab 1, batch 0 6 A
  Assigned classification CYP2B6: 1
CYP2B6 [4]; Lab 1, batch 4 0 8
  Assigned classification CYP2B6: 1
CYP2B6 [4]; Lab 1, batch 8 0 8
  Assigned classification CYP2B6: 1
CYP2B6 [4]; Lab 2, batch 0 6 A
  Assigned classification CYP2B6: 1
CYP2B6 [4]; Lab 2, batch 4 0 8
  Assigned classification CYP2B6: 1
CYP2B6 [4]; Lab 2, batch 8 0 8
  Assigned classification CYP2B6: 0
CYP2B6 [4]; Lab 3, batch 0 6 A
  Assigned classification CYP2B6: 1
CYP2B6 [4]; Lab 3, batch 4 0 8
  Assigned classification CYP2B6: 0
CYP2B6 [4]; Lab 3, batch 8 0 8
  Assigned classification CYP2B6: 0
CYP1A2 [5]
  Prediction in vivo inducer: No
  Induction in vitro: No
CYP1A2 [5]; listed as efavirenz
  Prediction in vivo inducer: non-inducers
CYP1A2 [5]; Lab 1, batch 0 6 A
  Assigned classification CYP1A2: 0
CYP1A2 [5]; Lab 1, batch 4 0 8
  Assigned classification CYP1A2: 0
CYP1A2 [5]; Lab 1, batch 8 0 8
  Assigned classification CYP1A2: 0
CYP1A2 [5]; Lab 2, batch 0 6 A
  Assigned classification CYP1A2: 0
CYP1A2 [5]; Lab 2, batch 4 0 8
  Assigned classification CYP1A2: 0
CYP1A2 [5]; Lab 2, batch 8 0 8
  Assigned classification CYP1A2: 0
CYP1A2 [5]; Lab 3, batch 0 6 A
  Assigned classification CYP1A2: 0
CYP1A2 [5]; Lab 3, batch 4 0 8
  Assigned classification CYP1A2: 0
CYP1A2 [5]; Lab 3, batch 8 0 8
  Assigned classification CYP1A2: 0
CYP
  CYP induction in vitro (human hepatocytes): CYP2B6, CYP3A4
CYP3A4 [6]; CYP3A4, human in vivo reference classification (Table 12)
  Induction in vivo: Yes
CYP3A4 [6]; [14]
  CYP induction in vivo literature reference: CYP3A4: CYP3A4
[7]; [16]
  Cmax: 9.1 to 12.6 µM
[7]; [17]
  Cmax: 9.1 to 12.6 µM
[8]; Lab 1, visual observation
  HepaRG medium stability: 20 µg/mL
[8]; Lab 2, visual observation
  HepaRG medium stability: 40 µg/mL
[8]; Lab 3, visual observation
  HepaRG medium stability: 40 µg/mL
[8]; Lab 4, visual observation
  PHH medium stability: 40 µg/mL
[8]; Lab 5, visual observation
  PHH medium stability: 40 µg/mL
[8]; Lab 6, visual observation
  PHH medium stability: 40 µg/mL

## CC(C)NCC(O)c1ccc(NS(C)(=O)=O)cc1 (stereo not drawn) [Sotalol hydrochloride]
CYP2B6 [2]; [13]
  Induction in vivo: No
CYP2B6 [2]; CYP2B6, human, ref Table 1
  Induction in vivo: No
CYP1A2 [9]; CYP1A2, HepaRG cells, Cmax/F2 >0.5 criterion
  Prediction in vivo inducer: No
CYP1A2 [9]; CYP1A2, HepaRG cells, positive in one batch in each of the three laboratories
  Induction in vitro: No
CYP1A2 [9]; Lab 1, batch 20
  Assigned classification CYP1A2: 0
CYP1A2 [9]; Lab 1, batch 35
  Assigned classification CYP1A2: 0
CYP1A2 [9]; Lab 1, batch 36
  Assigned classification CYP1A2: 0
CYP1A2 [9]; Lab 2, batch 20
  Assigned classification CYP1A2: 0
CYP1A2 [9]; Lab 2, batch 35
  Assigned classification CYP1A2: 0
CYP1A2 [9]; Lab 2, batch 36
  Assigned classification CYP1A2: 0
CYP1A2 [9]; Lab 3, batch 20
  Assigned classification CYP1A2: 1
CYP1A2 [9]; Lab 3, batch 35
  Assigned classification CYP1A2: 0
CYP1A2 [9]; Lab 3, batch 36
  Assigned classification CYP1A2: 0
CYP3A4 [3]; CYP3A4, PHH
  Induction in vitro: No
  Prediction in vivo inducer: No
CYP3A4 [3]; Lab 1, batch 0 6 A
  Assigned classification CYP3A4: 0
CYP3A4 [3]; Lab 1, batch 4 0 8
  Assigned classification CYP3A4: 0
CYP3A4 [3]; Lab 1, batch 8 0 8
  Assigned classification CYP3A4: 0
CYP3A4 [3]; Lab 2, batch 0 6 A
  Assigned classification CYP3A4: 0
CYP3A4 [3]; Lab 2, batch 4 0 8
  Assigned classification CYP3A4: 0
CYP3A4 [3]; Lab 2, batch 8 0 8
  Assigned classification CYP3A4: 0
CYP3A4 [3]; Lab 3, batch 0 6 A
  Assigned classification CYP3A4: 0
CYP3A4 [3]; Lab 3, batch 4 0 8
  Assigned classification CYP3A4: 0
CYP3A4 [3]; Lab 3, batch 8 0 8
  Assigned classification CYP3A4: 0
CYP3A4 [10]; CYP3A4, HepaRG cells
  Induction in vitro: No
  Prediction in vivo inducer: No
CYP3A4 [10]; Lab 1, batch 20
  Assigned classification CYP3A4: 0
CYP3A4 [10]; Lab 1, batch 35
  Assigned classification CYP3A4: 0
CYP3A4 [10]; Lab 1, batch 36
  Assigned classification CYP3A4: 0
CYP3A4 [10]; Lab 2, batch 20
  Assigned classification CYP3A4: 0
CYP3A4 [10]; Lab 2, batch 35
  Assigned classification CYP3A4: 0
CYP3A4 [10]; Lab 2, batch 36
  Assigned classification CYP3A4: 0
CYP3A4 [10]; Lab 3, batch 20
  Assigned classification CYP3A4: 0
CYP3A4 [10]; Lab 3, batch 35
  Assigned classification CYP3A4: 0
CYP3A4 [10]; Lab 3, batch 36
  Assigned classification CYP3A4: 0
CYP1A2 [11]
  Induction in vivo: No
CYP2B6 [12]; CYP2B6, HepaRG cells, listed as Sotalol
  Prediction in vivo inducer: No
CYP2B6 [12]; CYP2B6, HepaRG cells, listed as sotalol
  Prediction in vivo inducer: correctly predicted
CYP2B6 [12]; CYP2B6, HepaRG cells, positive in one batch in each of the three laboratories
  Induction in vitro: No
CYP2B6 [12]; Lab 1, batch 20
  Assigned classification CYP2B6: 0
CYP2B6 [12]; Lab 1, batch 35
  Assigned classification CYP2B6: 0
CYP2B6 [12]; Lab 1, batch 36
  Assigned classification CYP2B6: 0
CYP2B6 [12]; Lab 2, batch 20
  Assigned classification CYP2B6: 0
CYP2B6 [12]; Lab 2, batch 35
  Assigned classification CYP2B6: 0
CYP2B6 [12]; Lab 2, batch 36
  Assigned classification CYP2B6: 0
CYP2B6 [12]; Lab 3, batch 20
  Assigned classification CYP2B6: 0
CYP2B6 [12]; Lab 3, batch 35
  Assigned classification CYP2B6: 0
CYP2B6 [12]; Lab 3, batch 36
  Assigned classification CYP2B6: 0
CYP2B6 [4]; CYP2B6, PHH
  Induction in vitro: No
  Prediction in vivo inducer: No
CYP2B6 [4]; [15]
  Prediction in vivo inducer: negative
CYP2B6 [4]; Lab 1, batch 0 6 A
  Assigned classification CYP2B6: 0
CYP2B6 [4]; Lab 1, batch 4 0 8
  Assigned classification CYP2B6: 0
CYP2B6 [4]; Lab 1, batch 8 0 8
  Assigned classification CYP2B6: 0
CYP2B6 [4]; Lab 2, batch 0 6 A
  Assigned classification CYP2B6: 0
CYP2B6 [4]; Lab 2, batch 4 0 8
  Assigned classification CYP2B6: 0
CYP2B6 [4]; Lab 2, batch 8 0 8
  Assigned classification CYP2B6: 0
CYP2B6 [4]; Lab 3, batch 0 6 A
  Assigned classification CYP2B6: 1
CYP2B6 [4]; Lab 3, batch 4 0 8
  Assigned classification CYP2B6: 0
CYP2B6 [4]; Lab 3, batch 8 0 8
  Assigned classification CYP2B6: 0
CYP1A2 [5]
  Prediction in vivo inducer: No
  Induction in vitro: No
CYP1A2 [5]; Lab 1, batch 0 6 A
  Assigned classification CYP1A2: 0
CYP1A2 [5]; Lab 1, batch 4 0 8
  Assigned classification CYP1A2: 0
CYP1A2 [5]; Lab 1, batch 8 0 8
  Assigned classification CYP1A2: 0
CYP1A2 [5]; Lab 2, batch 0 6 A
  Assigned classification CYP1A2: 0
CYP1A2 [5]; Lab 2, batch 4 0 8
  Assigned classification CYP1A2: 0
CYP1A2 [5]; Lab 2, batch 8 0 8
  Assigned classification CYP1A2: 0
CYP1A2 [5]; Lab 3, batch 0 6 A
  Assigned classification CYP1A2: 0
CYP1A2 [5]; Lab 3, batch 4 0 8
  Assigned classification CYP1A2: 0
CYP1A2 [5]; Lab 3, batch 8 0 8
  Assigned classification CYP1A2: 0
CYP
  CYP induction in vitro (human hepatocytes): No
CYP3A4 [6]; CYP3A4, human in vivo reference classification (Table 11)
  Induction in vivo: No
[7]; [16]
  Cmax: 2 µM
[7]; [17]
  Cmax: 2 µM
